One may read the pIC50 as the IC50 on a negative log10 scale, so that one unit is a factor of ten. High values mean a small IC50, low ones a large IC50.

These results are taken from ChEMBL document CHEMBL5727000, “Carboxamide or sulfonamide substituted thiazoles and related derivatives as modulators for the orphan nuclear receptor ROR[γ]” (2019).

SMILES strings stand for the structures. pIC50: −log10 of the molar value. “And” between values parts separate entries of the source, which are not always exact repeats. Equal values may be shown once.

The assay in a line: RORgamma Gal4 Reporter Gene Assay (REN): Cells were incubated for additional 16 h before renilla (REN) luciferase activities were measured sequentially in the same cell extract using a Dual-Light-Luciferase-Assay system (Dyer et al., Anal. Biochem. 2000, 282:158). All experiments were done at least in triplicates. (In general: In a reporter assay the amount or activity of a reporter protein is the signal.)
`CC(C)(C)NS(=O)(=O)c1ccc(-c2sc(C(=O)N[C@H]3C[C@H](C(=O)O)C3)nc2CC2CCCCC2)c(C(F)F)c1Cl` showed a pIC50 of 8.50.
Regarding `CC(C)(C)NS(=O)(=O)c1ccc(-c2sc(C(=O)NC3CCS(=O)(=O)CC3)nc2CC2CCCCC2)c2ccncc12`, the pIC50 is 7.90.
To `CC(C)(C)NS(=O)(=O)c1ccc(-c2sc(C(=O)NCC3(O)CCOCC3)nc2CC2CCCCC2)cc1C(C)(C)O` belongs 7.70; to `CC(C)(C)NS(=O)(=O)c1ccc(-c2sc(C(=O)NN3CCS(=O)(=O)CC3)nc2CC2CCCCC2)c(Cl)c1Cl`, 8.70; to `CC(C)(C)NS(=O)(=O)c1ccc(-c2sc(C(=O)N[C@H]3C[C@H](C(=O)O)C3)nc2CC2CCCCC2)c2c1CCC2`, 8.50.
To `CC(C)(O)c1cc(-c2sc(C(=O)N[C@H]3C[C@H](C(=O)O)C3)nc2CC2CCCCC2)cc(C2(C)CC2)c1` belongs 7.10.
To `CC(C)(C)NS(=O)(=O)c1ccc(-c2sc(C(=O)NC3CCOCC3)nc2CC2CCCCC2)cc1C(C)(C)O` belongs 7.70; to `CC(C)(C)NS(=O)(=O)c1ccc(-c2sc(C(=O)NN3CCOCC3)nc2CC2CCCCC2)c(Cl)c1Cl`, 8.70.
The compound `CC(C)(C)NS(=O)(=O)c1ccc(-c2oc(C(=O)N[C@H]3C[C@H](C(=O)NS(C)(=O)=O)C3)nc2CC2CCCCC2)c2ccccc12` gave a pIC50 of 6.70.
To `CN(C(=O)c1nc(CC2CCCCC2)c(-c2cc(C(C)(C)C)cc(C3(C)CC3)c2)s1)C1CCOCC1` belongs 6.90; to `CC(C)(C)NS(=O)(=O)c1ccc(-c2sc(S(N)(=O)=O)nc2CC2CCCCC2)cc1C(C)(C)C`, 6.60.
Consider `CC(C)(C)c1cc(-c2sc(C(=O)N[C@H]3C[C@H](C(=O)O)C3)nc2CC2CCCCC2)cc(C(C)(F)F)c1`, for which the pIC50 is 7.40.
Then `CC(C)(C)c1cc(-c2sc(S(N)(=O)=O)nc2CC2CCCCC2)cc(C(C)(C)C)c1`, with 6.40; and `CC(C)(C)NS(=O)(=O)c1ccc(-c2sc(C(=O)NC3CCS(=O)(=O)CC3)nc2-c2cccc(Cl)c2)c2ccccc12`, with 8.20; and `CC(C)(C)c1cc(-c2nc(C(N)=O)sc2CC2CCCCC2)cc(C(C)(C)C)c1`, with 5.80.
Then `CC(C)(C)NS(=O)(=O)c1ccc(-c2sc(C(=O)NC3CSC3)nc2CC2CCCCC2)c(Cl)c1Cl`, with 8.70.
`CC(C)(O)c1cc(-c2sc(C(=O)N[C@H]3C[C@@H](C(=O)O)C3)nc2CC2CCCCC2)cc(C2(C)CC2)c1`: the pIC50 was 7.20.
The compound `COC(c1nc(C(=O)NC2CCOCC2)sc1-c1cc(C(C)(C)C)cc(C2(C)CC2)c1)C1CCCCC1` (stereo not drawn) had a pIC50 of 7.10.
In turn, `CC(C)(C)NS(=O)(=O)c1ccc(-c2sc(C(=O)NCC3(C(=O)O)CCOCC3)nc2CC2CCCCC2)c(Cl)c1Cl` had a pIC50 of 7.40.
Then `CC(C)(C)NS(=O)(=O)c1ccc(-c2oc(C(=O)NC3CCOCC3)nc2CC2CCCCC2)cc1C(C)(C)C`, with 6.30; and `CC(C)(C)NS(=O)(=O)c1ccc(-c2sc(C(=O)NCCN3CCOCC3)nc2CC2CCCCC2)cc1C(C)(C)O`, with 6.70.
To `CC(C)(C)NS(=O)(=O)c1ccc(-c2sc(C(=O)N[C@H]3C[C@H](C(=O)O)C3)nc2C2CCCCC2)c2ccccc12` belongs 8.00.
For the compound `CC(C)(C)NS(=O)(=O)c1ccc(-c2sc(C(=O)NC3CCS(=O)(=O)CC3)nc2CC2CCCCC2)c(Cl)c1Cl`, the pIC50 is 8.70.
Compound `CC(C)(C)NS(=O)(=O)c1ccc(-c2sc(C(=O)NC3CCS(=O)(=O)CC3)nc2CC2CCCCC2)c2ccccc12` showed a negative logarithm of the IC50 (pIC50) of 9.00.
Then `CC(C)(C)NS(=O)(=O)c1ccc(-c2sc(C(=O)NC3CSC3)nc2CC2CCCCC2)c2ccccc12`, with 8.70.
To `O=C(c1nc(CC2CCCCC2)c(-c2ccc(S(=O)(=O)NC3CS(=O)(=O)C3)c3ccccc23)s1)N1CC2(CCS(=O)(=O)CC2)C1` belongs 6.40; to `CC(C)(C)NS(=O)(=O)c1ccc(-c2sc(C(=O)N[C@H]3C[C@H](C(=O)O)C3)nc2CC2CCCCC2)cc1C(F)(F)F`, 8.00.
To `C[C@H](NS(=O)(=O)c1ccc(-c2sc(C(=O)NCC(C)(C)O)nc2CC2CCC2)c(Cl)c1)C(F)(F)F` belongs 7.90.
Compound `CC1(NC(=O)c2cc(-c3sc(C(=O)NC4CCS(=O)(=O)CC4)nc3CC3CCCCC3)cc(C3(C)CC3)c2)COC1` had a pIC50 of 7.90.
Then `Cc1c(C(=O)NC(C)(C)C)cc(-c2sc(C(=O)N[C@H]3C[C@H](C(=O)O)C3)nc2CC2CCCCC2)cc1C1(C)CC1`, with 6.80.
Then `CC(C)(O)CNC(=O)c1nc(CC2CCCCC2)c(-c2ncc(S(=O)(=O)NC(C)(C)C)c3ccccc23)s1`, with 7.70; and `CC(C)(C)NS(=O)(=O)c1ccc(-c2sc(C(=O)NC3CCS(=O)(=O)CC3)nc2C2CCCCC2)c2ccccc12`, with 8.20; and `C[C@H](NC(=O)c1cc(-c2sc(C(=O)NCC(C)(C)c3nnn[nH]3)nc2CC2CCCCC2)cc(C2(C)CC2)c1)C(F)(F)F`, with 7.50.
For `CC(C)(C)NS(=O)(=O)c1ccc(-c2sc(C(=O)NC3C[S+]([O-])C3)nc2CC2CCCCC2)cc1C(C)(C)O` (stereo not drawn), the negative-log IC50 (pIC50) is 8.00 and 7.30.
To `COC(c1nc(C(=O)N[C@H]2C[C@H](C(=O)O)C2)sc1-c1cc(C(C)(C)C)cc(C2(C)CC2)c1)C1CCCCC1` (stereo partly drawn) belongs 7.00; to `CC(C)(C)NS(=O)(=O)c1ccc(-c2sc(C(=O)NC3CCS(=O)(=O)CC3)nc2CC2CCC2)c2ccccc12`, 8.40; to `CC(C)(C)NS(=O)(=O)c1ccc(-c2sc(C(=O)N[C@H]3C[C@H](C(=O)O)C3)nc2CC2CCCCC2)cc1C(C)(C)O`, 8.00.
In turn, `CC1(c2cc(-c3sc(C(=O)N[C@H]4C[C@H](C(=O)O)C4)nc3CC3CCCCC3)cc(C(F)(F)F)c2)CC1` had a pIC50 of 7.10.
`COC(c1nc(C(=O)NC2CCOCC2)sc1-c1ccc(S(=O)(=O)NC(C)(C)C)c(C(C)(C)C)c1)C1CCCCC1` (stereo not drawn): the pIC50 is 6.70.
As for `CNS(=O)(=O)c1ccc(-c2sc(C(=O)N3CC4(CCS(=O)(=O)CC4)C3)nc2CC2CCCCC2)c2ccccc12`, the pIC50 is 6.60.
In turn, `CC(C)(C)c1cc(-c2cc(C(N)=O)ccc2CC2CCCCC2)cc(C(C)(C)C)c1` had a pIC50 of 6.30.
`CC(C)(C)NS(=O)(=O)c1ccc(-c2sc(C(=O)NC34CCC(C(=O)O)(CC3)CC4)nc2CC2CCCCC2)c2ccccc12` had a pIC50 of 8.20.
In the case of `CC(C)(C)NS(=O)(=O)c1ccc(-c2sc(C(=O)NCCC(C)(C)C(=O)O)nc2CC2CCCCC2)c(Cl)c1Cl`, the pIC50 is 8.20.
`CC(C)COc1cc(-c2sc(C(=O)N[C@H]3C[C@H](C(=O)O)C3)nc2CC2CCCCC2)cc(C(C)(C)C)n1` gave a negative logarithm of the IC50 (pIC50) of 7.40.
In turn, `CC(C)(C)c1cc(-c2oc(C(N)=O)nc2CC2CCCCC2)cc(C(C)(C)C)c1` gave a pIC50 of 5.80.
Take `CC(C)(C)NS(=O)(=O)c1ccc(-c2oc(C(=O)NC34CCC(C(=O)O)(CC3)CC4)nc2CC2CCCCC2)c2ccccc12`: the pIC50 was 7.90.
Then `CC(C)(CCNC(=O)c1nc(CC2CCCCC2)c(-c2cc(C(C)(C)C)cc(C3(C)CC3)c2)s1)C(=O)O`, with 7.00; and `CC(C)(C)c1cc(-c2ccc(C(N)=O)cc2CC2CCCCC2)cc(C(C)(C)C)c1`, with 6.20.
Compound `CC(C)(C)NS(=O)(=O)c1ccc(-c2nc(C(=O)NC3CCS(=O)(=O)CC3)sc2CC2CCCCC2)c2ccccc12` gave a pIC50 of 9.00.
`CCCc1nc(C(=O)NCC(C)(C)O)sc1-c1ccc(S(=O)(=O)N[C@@H](C)C(F)(F)F)c2ccccc12` gave a pIC50 of 7.90.
To `CC(C)(CO)NS(=O)(=O)c1ccc(-c2sc(C(=O)N3CC4(CCS(=O)(=O)CC4)C3)nc2CC2CCCCC2)c2ccccc12` belongs 7.10; to `CC(C)(C)NS(=O)(=O)c1ccc(-c2sc(C(=O)NC3COC3)nc2CC2CCCCC2)c(Cl)c1Cl`, 8.50; to `CC(C)(C)c1cc(-c2nc(C(=O)NC3CCS(=O)(=O)CC3)oc2CC2CCCCC2)cc(C2(C)CC2)c1`, 6.60.
The compound `CC(O)c1c(S(=O)(=O)NC(C)(C)C)ccc(-c2sc(C(=O)N3CC4(CCS(=O)(=O)CC4)C3)nc2CC2CCCCC2)c1Cl` (stereo not drawn) showed a pIC50 of 6.70.
`CC(C)(C)NS(=O)(=O)c1ccc(-c2sc(C(=O)NC3CCC(C(=O)O)C3)nc2CC2CCCCC2)c2ccccc12` (stereo not drawn): the pIC50 was 8.40.
Then `CC(C)(C)NS(=O)(=O)c1ccc(-c2sc(C(=O)NC3CCS(=O)(=O)CC3)nc2CC2CC2)c(Cl)c1Cl`, with 7.50; and `CC(C)(CNC(=O)c1nc(CC2CCCCC2)c(-c2cc(C(C)(C)C)cc(C3(C)CC3)c2)o1)C(=O)O`, with 6.60.
Then `C[C@H](NS(=O)(=O)c1ccc(-c2sc(C(=O)NCC(C)(C)O)nc2CC2CCC2)c(C(F)(F)F)c1)C(F)(F)F`, with 7.70; and `CC(C)(C#N)CNC(=O)c1nc(CC2CCCCC2)c(-c2ccc(S(=O)(=O)NC(C)(C)C)c3ccccc23)s1`, with 8.70.
To `COCC(C)(C)NS(=O)(=O)c1ccc(-c2sc(C(=O)N3CC4(CCS(=O)(=O)CC4)C3)nc2CC2CCCCC2)c2ccccc12` belongs 7.40.
For `CC(C)(C)NS(=O)(=O)c1ccc(-c2sc(C(=O)N3CC(C(C)(C)C(=O)O)C3)nc2CC2CCCCC2)c(Cl)c1Cl`, the pIC50 is 6.90.
To `O=C(NC1CCS(=O)(=O)CC1)c1nc(CC2CCCCC2)c(-c2ccc(N3CCOCC3)c3ccccc23)s1` belongs 6.90; to `CC(C)(C)NS(=O)(=O)c1ccc(-c2nc(C(=O)NC34CCC(C(=O)O)(CC3)CC4)oc2CC2CCCCC2)c2ccccc12`, 7.40.
`CC(C)(C)NS(=O)(=O)c1ccc(-c2sc(C(=O)NCCC(C)(C)C(=O)O)nc2CC2CCCCC2)cc1C(F)(F)F` gave a pIC50 of 7.40.
In turn, `CC(C)(C)NS(=O)(=O)c1ccc(-c2sc(C(=O)NC3CC3)nc2CC2CCCCC2)c(Cl)c1Cl` had a pIC50 of 8.00.
To `CC(C)(C)c1cc(-c2oc(C(=O)NC3CCOCC3)nc2CC2CCCCC2)cc(C2(C)CC2)c1` belongs 6.90; to `CCC(C)(C)NS(=O)(=O)c1ccc(-c2sc(C(=O)NCC(C)(C)O)nc2C(=O)N2CCC(C)CC2)c(Cl)c1C`, 8.50.
`CC(C)(C)NS(=O)(=O)c1ccc(-c2sc(C(=O)NC3CS(=O)(=O)C3)nc2CC2CCCCC2)cc1C(C)(C)O` showed a pIC50 of 7.90.
